Measurements as given in ChEMBL document CHEMBL4610069, “Chetocochliodins A-I, Epipoly(thiodioxopiperazines) from Chaetomium cochliodes” (J Nat Prod, 2020).
Calls of active or inactive are those of the source. The calls are words filed in the database; no cut-off is given here.

Experiments:
Assay type in all cases: functional, cell-based
Huh-7 [1] = experiment: Cytotoxicity against human HuH7 cells up to 100 uM by MTT assay
A549 [2] = experiment: Cytotoxicity against human A549 cells up to 100 uM by MTT assay
HeLa [3] = experiment: Cytotoxicity against human HeLa cells up to 100 uM by MTT assay
HeLa [4] = experiment: Cytotoxicity against human HeLa cells by MTT assay
Huh-7 [5] = experiment: Cytotoxicity against human HuH7 cells by MTT assay
A549 [6] = experiment: Cytotoxicity against human A549 cells by MTT assay

Structure (SMILES)	Activity (Huh-7 [1])	Activity (A549 [2])	Activity (HeLa [3])	Activity (HeLa [4])	Activity (Huh-7 [5])	Activity (A549 [6])	further results
CO[C@]1(CO)NC(=O)[C@](Cc2c[nH]c3ccccc23)(OC)NC1=O	inactive	inactive	inactive				
CN1C(=O)[C@]2(Cc3c[nH]c4ccccc34)SSSS[C@@]1(CO)C(=O)N2C							IC50 (HeLa [4]): 930 to 2450 nM; IC50 (Huh-7 [5]): 930 to 2450 nM; IC50 (A549 [6]): 930 to 2450 nM
CO[C@]1(CO)NC(=O)[C@@](Cc2c[nH]c3ccccc23)(OC)NC1=O	inactive	inactive	inactive				
CO[C@@]1(CO)NC(=O)[C@](Cc2c[nH]c3ccccc23)(SC)NC1=O				inactive	inactive	inactive	
CO[C@]1(CO)NC(=O)[C@](Cc2c[nH]c3ccccc23)(SC)NC1=O				inactive	inactive	inactive	
CO[C@]1(Cc2c[nH]c3ccccc23)NC(=O)[C@H](CO)N(C)C1=O	inactive	inactive	inactive				
CS[C@]1(CO)NC(=O)[C@](Cc2c[nH]c3ccccc23)(SC)NC1=O				inactive	inactive	inactive	
